Patent US8188143B2, “Pharmaceutical composition useful as acetylcholinesterase inhibitors” (Council of Scientific and Industrial Research, priority 2006, dated 2012)
“Also recorded” adds a separate entry of the source. Like-named read-outs stand apart in the source and are kept apart here.

What was measured:
[1] = system: Scopolamine induced deficit in passive avoidance test in mice; assay: Single trial passive avoidance test, scopolamine induced deficit (in vivo); settings: for In Vivo (passive avoidance test, significance of TLT increase): scopolamine induced deficit, oral for 3 days; for In Vivo (passive avoidance test, significance of TLT increase) / effectiveness in passive avoidance test (in vivo), in words: mice; for TLT on 2nd trial as compared to 1st trial after scopolamine: mice pretreated po x 3 days (100 mg/kg FIG. 1a; 50 mg/kg FIG. 1b), scopolamine 5 min prior to 1st trial; for effectiveness in passive avoidance test (in vivo), in words: scopolamine induced memory deficit
Experimental: Single trial passive avoidance is widely used as experimental test to assess learning memory functions in rodents. Scopolamine induced impairment in passive avoidance (in vivo) and inhibition of acetylcholinesterase (in vitro) in rodents are commonly employed and screening test to predict potential of an acetylcholinesterase inhibitor as cognitive enhancer (anti-dementic) drug.
Passive Avoidance Test (In Vivo):
The study was conducted in adult Swiss male mice of 3-4 months (wt. 20-25 g) were kept in standard housing condition with 12 h light and dark cycle. The food and water were available ad libitum.
The mice were subjected to single trial passive avoidance test as described by Brioni.
The passive avoidance test was studied by a computerized shuttle box (Columbus Instruments, Ohio, USA) provided with a software program PACS 30. The shuttle box is comprised of two compartments. An automated door was used to isolate the compartments. After an exploration period of 30 s for acclimatization the animal was subjected to a trial of 270 seconds. Each mouse was placed in the bright compartment and on transfer into the dark compartment it was given an electric shock (0.5 mA for 5 s) through floor grid. The transfer of mice from the bright to dark compartment was recorded as transfer latency time (TLT) in seconds. TLT was recorded in control and treated groups (1st Trial, acquisition) and then after 24 h (2nd Trial, retention). An increase in the TLT on 2nd Trial (retention) as compared to 1st Trial (acquisition) was taken as the criterion for successful learning and memory (cognitive activity).
Scopolamine Induced Deficit (Dementia)
Scopolamine, a muscarinic antagonist known to produce impairment in cognitive functions (dementia) in human as well as in experimental animals, was used to produce deficit (no significant increase on 2nd trial) in passive avoidance learning. Scopolamine was administered 5 min prior to 1st trial. Reversal of scopolamine induced deficit i.e. significant increase in 2nd trial by test substance indicates potential anti-dementia activity. […].
The test substance Columbianetin was administered orally in dose of 100 m/kg (1% aqueous suspension in gum acacia) for 3 days. The treated animals were subjected to 1st trial after 60 min of 3rd dose of test substance. Scopolamine was administered 5 min prior to 1st trial in test group.
The control group received 1 ml/kg of vehicle (1% aqueous suspension in gum acacia) orally for 3 days. Among the control mice half (n=5) received scopolamine 5 min prior to 1st trial (Control—dementia) and the remaining half were subjected to passive avoidance test (Control—trained).
Level of p value<0.05 indicates statistically significant difference.
Mean values and standard error (S.E.) of mean were calculated for TLT and specific activity of AChE in the different regions of brain samples of each group. The significance of difference between the values of AChE activity and TLT of two groups was determined by one-way ANOVA test that followed by Dunnett's test.

[2] = target: T1, Acetylcholinesterase (AChE) (Rattus norvegicus, UniProt P37136); assay: Acetylcholinesterase (AChE) assay in brain (in vitro), Ellman method; format: biochemical
T1 construct: Aliquots of this supernatant was diluted in the ratio of 1:10 and used as a source of enzyme for the assay; from tissue; host or cells: whole brain of adult male SD rats; 100,000 x g supernatant of a 10% homogenate with Triton X-100
Experimental: Acetylcholinesterase (AChE) Assay in Brain (In Vitro)
The study was conducted in adult SD male rats (200-250 g). The rats were perfused under mild ether anesthesia through heart with ice cooled normal saline (0.9% NaCl) to reduce blood-borne cholinesterase from the brain. After perfusion the whole brain was taken out. A 10% (w/v) homogenate of brain was prepared first by homogenizing in an Ultra-Turrax T25 homogenizer at a speed of 9500 rpm thrice giving intervals for few seconds in between the runs, with sodium phosphate buffer (30 mmol/lit, pH 7.0). Sodium phosphate buffer was taken in a volume half to the final volume required for 10% homogenate.
1% Triton X-100 (1% w/v in 30 mmol/lit. sodium phosphate buffer, pH 7.0) is then added in a volume to make the final volume for 10% homogenate, slowly while stirring the homogenate on ice. The homogenate was centrifuged at 100,000×g at 4° C. in a Beckman Ultracentrifuge (LE 80) using a fixed angle rotor (80 Ti) for 60 min. Supernatant was collected and stored at 4° C. Aliquots of this supernatant was diluted in the ratio of 1:10 and used as a source of enzyme for the assay.
The assay of AChE was performed according to method described by Ellman et al. A kinetic profile of the enzyme activity was studied spectrophotometrically at 412 nm at an interval of 15 s. The assay for each sample was run in duplicate and each experiment was performed thrice. The specific activity of AChE is expressed in μmoles/min/mg of protein. The test substance (dissolved in DMSO) was incubated with enzyme source in concentration of 100 μg/1 ml of reaction mixture for 30 min at 37° C. prior to obtain kinetic profile of AChE activity. The AChE inhibitory activity was calculated on the basis of % decrease change from control values.
Protein was estimated in the brain samples by modified Lowry's method. Bovine serum albumin (BSA) was used as standard in the concentration of 1 mg/ml. was estimated in the range of 0.01-0.1 mg/ml. […]

[3] = system: Scopolamine induced deficit in passive avoidance test in mice; assay: Single trial passive avoidance test, scopolamine induced deficit (in vivo); settings: po + scopolamine, % increase in TLT of 2nd trial from TLT of 1st trial
[4] = 0.5 h; 100 μg/1 ml of reaction mixture, incubated 30 min at 37° C., rat brain enzyme source; read-out: In Vitro %) (AChE inhibitory activity, % decrease change from control)

T1 sequence (P37136 32-614): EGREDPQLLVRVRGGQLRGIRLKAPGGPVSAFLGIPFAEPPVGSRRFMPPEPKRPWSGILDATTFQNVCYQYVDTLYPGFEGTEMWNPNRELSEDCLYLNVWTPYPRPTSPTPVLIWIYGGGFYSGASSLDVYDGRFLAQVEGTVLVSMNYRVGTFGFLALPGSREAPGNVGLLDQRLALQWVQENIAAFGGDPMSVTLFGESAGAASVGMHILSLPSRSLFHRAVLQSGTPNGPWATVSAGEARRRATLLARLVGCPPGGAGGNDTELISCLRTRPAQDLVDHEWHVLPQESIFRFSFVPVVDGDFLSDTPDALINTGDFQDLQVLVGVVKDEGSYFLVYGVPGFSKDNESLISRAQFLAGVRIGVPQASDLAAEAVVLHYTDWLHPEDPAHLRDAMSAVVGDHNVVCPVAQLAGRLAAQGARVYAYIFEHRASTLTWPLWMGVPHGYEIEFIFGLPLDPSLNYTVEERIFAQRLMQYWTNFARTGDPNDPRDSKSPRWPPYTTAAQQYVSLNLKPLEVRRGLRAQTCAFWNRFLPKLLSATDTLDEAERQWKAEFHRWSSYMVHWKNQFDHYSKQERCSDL

SMILES | In Vivo (passive avoidance test, significance of TLT increase) [1] | inhibition at 100 µg/mL [2, 4] [%] | other results
CC(C)=CCOc1ccc2ccc(=O)oc2c1 [7-Prenyloxycoumarin] | No significant activity | – | –
O=c1ccc2ccc(O)cc2o1 [7-Hydroxycoumarin] | No significant activity | – | –
COc1ccc2ccc(=O)oc2c1 [7-Methoxycoumarin] | High significant activity | 25.2 | % Memory retention ([3]; AP20am samples 50 mg/kg): 295%; TLT on 2nd trial as compared to 1st trial after scopolamine [1]: significant increase in TLT on 2nd trial; effectiveness in passive avoidance test (in vivo), in words [1]: most effective
CC(=O)Oc1ccc2c(C)cc(=O)oc2c1 [4-Methyl-7-acetyloxycoumarin] | Significant activity (P < 0.01) | 23.9 | TLT on 2nd trial as compared to 1st trial after scopolamine [1]: significant increase in TLT on 2nd trial
Cc1cc(=O)oc2c(O)c(O)ccc12 [4-Methyl-7,8-dihydroxycoumarin] | No significant activity | 14.1 | –
O=c1ccc2ccc(OCc3ccccc3)cc2o1 [7-Benzyloxycoumarin] | Significant activity | – | TLT on 2nd trial as compared to 1st trial after scopolamine [1]: significant increase in TLT on 2nd trial
Cc1cc(=O)oc2c(OCc3ccccc3)c(OCc3ccccc3)ccc12 [4-Methyl-7,8-dibenzyloxycoumarin] | No significant activity | 24.1 | –
CC(C)=CCc1c(O)ccc2ccc(=O)oc12 [7-Hydroxy-8-prenylcoumarin] | No significant activity | – | –
CC(C)(O)[C@@H]1Cc2cc3ccc(=O)oc3cc2O1 (racemic) [(±) Marmesin] | Significant activity (P < 0.01) | – | In Vitro %) (AChE inhibitory activity, % decrease change from control) ([2]; 100 μg/1 ml of reaction mixture, incubated 30 min at 37° C., rat brain enzyme source): 23.91%
C#CC(C)(C)c1ccc2ccc(=O)oc2c1 [7-Dimethylpropargylcoumarin] | No significant activity | – | –
CC(=O)Oc1ccc2c(C)cc(=O)oc2c1OC(C)=O [4-Methyl-7,8-diacetyloxycoumarin] | No significant activity | 24 | –
CC(=O)Oc1ccc2ccc(=O)oc2c1 [7-Acetyloxycoumarin] | High significant activity | 39.1 | % Memory retention ([3]; AP20am samples 50 mg/kg): 321%; TLT on 2nd trial as compared to 1st trial after scopolamine [1]: significant increase in TLT on 2nd trial; effectiveness in passive avoidance test (in vivo), in words [1]: most effective; also recorded: effective
CC(C)(O)[C@@H]1Cc2c(ccc3ccc(=O)oc23)O1 [Columbianetin] | No significant activity | 13.9 | –
CC1(C)C=Cc2c(ccc3ccc(=O)oc23)O1 [Seselin] | No significant activity | – | –
Cc1cc(=O)oc2cc(O)ccc12 [4-Methyl-7-hydroxycoumarin] | High significant activity | 17.4 | % Memory retention ([3]; AP20am samples 50 mg/kg): 376%; TLT on 2nd trial as compared to 1st trial after scopolamine [1]: significant increase in TLT on 2nd trial; effectiveness in passive avoidance test (in vivo), in words [1]: most effective
COc1cc2c(cc1OC)C(=O)C(CC1CCN(Cc3ccccc3)CC1)C2 (centres unmarked) [Donepezil, reference compound] | – | – | % Memory retention ([3]; Standard drug Donepezil 10 mg/kg): 288%
CC(C)=CCc1cc2ccc(=O)oc2cc1O [7-Hydroxy-6-prenylcoumarin] | No significant activity | – | inhibition at 100 µg/mL ([2]; 0.5 h, read-out: In Vitro %) (AChE inhibitory activity, % decrease change from control)): 42.2%
CC1(C)CCc2cc3ccc(=O)oc3cc2O1 [Dihydroxanthyletin] | No significant activity | 37.8 | –
COc1ccc2c(C)cc(=O)oc2c1OC [4-Methyl-7,8-dimethoxycoumarin] | No significant activity | 14.2 | –
C=CCOc1ccc2ccc(=O)oc2c1 [7-Allyloxycoumarin] | Significant activity (P < 0.05) | – | TLT on 2nd trial as compared to 1st trial after scopolamine [1]: significant increase in TLT on 2nd trial
COc1ccc2c(C)cc(=O)oc2c1 [4-Methyl-7-methoxycoumarin] | No significant activity | 48.9 | effectiveness in passive avoidance test (in vivo), in words [1]: effective
